In US20060094771A1, “Carvedilol pharmasolve solvate” (priority 2002, published 2006):

Assay: Solubility of carvedilol in Pharmasolve
Assay type: physicochemical
Details: solvent Pharmasolve (N-methyl-2-pyrrolidone)

solubility of carvedilol in Pharmasolve: 1.6 gram of drug per gram of pharmasolve
Structure (SMILES): COc1ccccc1OCCNCC(O)COc1cccc2[nH]c3ccccc3c12 (racemic) [carvedilol]
